Legend:
[1] = molecular target: full-length MALT1 protein (Strep-MALT1(1-824)-His) (Homo sapiens (Human), UniProt Q9UDY8); test: MALT1 Biochemical Protease Assay (Ac-LRSR-AMC substrate); conditions: 10 nM FL MALT1, 200 μM Ac-LRSR-AMC, 4 h at RT; read-out: MALT1_Biochemical activity (Ac-LRSR-amc) IC50
Method in brief: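 Fluorescence from AMC release off the quenched LRSR substrate was read after a 4 h reaction at RT. Values were normalised to no-enzyme and uninhibited controls and fitted for IC50 and Hill coefficient.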

[2] = system: OCI-Ly3 cells; test: 4-day proliferation assay, OCI-Ly3; format: cell-based, human; conditions: Homo sapiens, 96 h, 4 days incubation, CellTiterGLO, read-out: Anti-proliferation: OCI-LY-3 IC50
Method in brief: (§1)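 Each line was plated at 10,000 cells per well for linear growth, with no beta-mercaptoethanol during the assay. OCI-Ly3 cells were below passage 10.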

[3] = system: IL6 secretion by OCI-LY3 ABC-DLBCL cells; test: Human IL6 Mesoscale assay (OCI-LY3); format: cell-based; conditions: Homo sapiens, 24 h
Method in brief: (§2)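 TMD8 or OCI-LY3 cells (100,000/well) were exposed to compounds in 9 twofold dilutions from 15 μM to 58.6 nM (0.3% DMSO) for 24 h at 37 °C. Supernatant IL6 and IL10 were quantified by MSD electrochemiluminescence immunoassay. DMSO defined maximum signal and BTK inhibitor RN486 (30 nM–131 pM) defined maximum inhibition.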

[4] = system: IL10 secretion by OCI-LY3 ABC-DLBCL cells; test: Human IL10 Mesoscale assay (OCI-LY3); format: cell-based; conditions: Homo sapiens, 24 h
Method in brief: as §2

[5] = system: TMD8 cells; test: 4-day proliferation assay, TMD8; format: cell-based; conditions: Homo sapiens, 96 h, 4 days incubation, CellTiterGLO, read-out: Anti-proliferation: TMD-8 IC50
Method in brief: as §1

Chain of full-length MALT1 protein (Strep-MALT1(1-824)-His) (Q9UDY8 whole entry): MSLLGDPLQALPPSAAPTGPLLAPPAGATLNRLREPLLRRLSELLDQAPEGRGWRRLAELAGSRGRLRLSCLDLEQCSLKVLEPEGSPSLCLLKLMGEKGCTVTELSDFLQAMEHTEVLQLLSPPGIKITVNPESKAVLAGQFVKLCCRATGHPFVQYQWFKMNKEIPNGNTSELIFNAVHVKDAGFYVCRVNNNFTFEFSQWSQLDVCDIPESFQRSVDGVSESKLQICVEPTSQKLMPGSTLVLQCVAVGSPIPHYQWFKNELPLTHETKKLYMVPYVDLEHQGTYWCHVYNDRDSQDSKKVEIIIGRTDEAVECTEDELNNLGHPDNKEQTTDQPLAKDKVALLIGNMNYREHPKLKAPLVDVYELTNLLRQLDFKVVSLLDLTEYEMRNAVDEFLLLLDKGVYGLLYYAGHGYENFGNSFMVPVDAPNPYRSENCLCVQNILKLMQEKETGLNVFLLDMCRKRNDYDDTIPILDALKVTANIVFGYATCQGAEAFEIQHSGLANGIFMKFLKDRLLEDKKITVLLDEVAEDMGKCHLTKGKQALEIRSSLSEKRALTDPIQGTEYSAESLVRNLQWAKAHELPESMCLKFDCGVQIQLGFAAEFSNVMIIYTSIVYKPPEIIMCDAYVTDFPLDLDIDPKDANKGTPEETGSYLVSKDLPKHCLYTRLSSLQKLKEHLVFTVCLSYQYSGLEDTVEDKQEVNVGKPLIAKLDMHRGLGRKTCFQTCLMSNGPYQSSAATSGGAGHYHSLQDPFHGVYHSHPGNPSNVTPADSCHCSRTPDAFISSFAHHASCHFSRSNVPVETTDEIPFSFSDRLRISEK

| SMILES | IC50 [1] [nM] | IC50 [2] [nM] | IC50 [3] [nM] | IC50 [4] [nM] | IC50 [5] [nM] |
| --- | --- | --- | --- | --- | --- |
| N#Cc1cc(NC(=O)c2cnn(-c3cccc4ocnc34)c2C(F)(F)F)cnc1-n1nccn1 [Cpd 311, 1-(benzo[d]oxazol-4-yl)-N-(5-cyano-6-(2H-1,2,3-triazol-2-yl)pyridin-3-yl)-5-(trifluoromethyl)-1H-pyrazole-4-carboxamide] | 50 | 2320 | 34 | 37 | 3550 |
| N#Cc1cc(NC(=O)c2cnn(-c3cccc4nccn34)c2C(F)(F)F)cnc1-n1nccn1 [Cpd 200, N-(5-cyano-6-(2H-1,2,3-triazol-2-yl)pyridin-3-yl)-1-(imidazo[1,2-a]pyridin-5-yl)-5-(trifluoromethyl)-1H-pyrazole-4-carboxamide] | 40 | 1390 | 380 | 282 | 7410 |
| N#Cc1cc(NC(=O)c2cnn(-c3cccc4scnc34)c2C(F)(F)F)cnc1-n1nccn1 [Cpd 316, 1-(benzo[d]thiazol-4-yl)-N-(5-cyano-6-(2H-1,2,3-triazol-2-yl)pyridin-3-yl)-5-(trifluoromethyl)-1H-pyrazole-4-carboxamide] | 37 | 1450 | 251 | 182 | 3090 |
| CC(O)c1ncc(-n2ncc(C(=O)Nc3cnc(-n4nccn4)c(Cl)c3)c2C(F)(F)F)c2ccsc12 (stereo not drawn) [Cpd 376, N-(5-chloro-6-(2H-1,2,3-triazol-2-yl)pyridin-3-yl)-1-(7-(1-hydroxyethyl)thieno[2,3-c]pyridin-4-yl)-5-(trifluoromethyl)-1H-pyrazole-4-carboxamide] | 24 | 1070 | 58 | 50 | 1440 |
| O=C(Nc1cnc(-n2nccn2)c(Cl)c1)c1cnn(-c2cncc3sccc23)c1C(F)(F)F [Cpd 447, N-(5-chloro-6-(2H-1,2,3-triazol-2-yl)pyridin-3-yl)-1-(thieno[2,3-c]pyridin-4-yl)-5-(trifluoromethyl)-1H-pyrazole-4-carboxamide] | 447 | 313 | 46 | 42 | 2190 |
| Cc1nc(-n2nccn2)c(Cl)cc1NC(=O)c1cnn(-c2cccn3nccc23)c1C(F)(F)F | 26 | 641 | 115 | 91 | 3020 |
| NC(=O)c1ncc(-n2ncc(C(=O)Nc3cnc(-n4nccn4)c(Cl)c3)c2C(F)(F)F)c2ccccc12 [Cpd 387, 4-(4-((5-chloro-6-(2H-1,2,3-triazol-2-yl)pyridin-3-yl)carbamoyl)-5-(trifluoromethyl)-1H-pyrazol-1-yl)isoquinoline-1-carboxamide] | 30 | 692 | 141 | 95 | 2190 |
| O=C(Nc1cc(Cl)c(-n2nccn2)cc1F)c1cnn(-c2cncc3c(F)cccc23)c1C(F)(F)F [Cpd 302, N-(5-chloro-2-fluoro-4-(2H-1,2,3-triazol-2-yl)phenyl)-1-(8-fluoroisoquinolin-4-yl)-5-(trifluoromethyl)-1H-pyrazole-4-carboxamide] | 54 | 692 | 102 | 59 | 955 |
| O=C(Nc1cnc(-c2nnco2)c(Cl)c1)c1cnn(-c2cccc3ncccc23)c1C(F)(F)F [Cpd 192, N-(5-chloro-6-(1,3,4-oxadiazol-2-yl)pyridin-3-yl)-1-(quinolin-5-yl)-5-(trifluoromethyl)-1H-pyrazole-4-carboxamide] | 25 | 593 | 46 | 42 | 4570 |
| O=C(Nc1cnc(-n2nccn2)c(Br)c1)c1cnn(-c2cccc3ncccc23)c1C(F)(F)F [Cpd 139, N-(5-bromo-6-(2H-1,2,3-triazol-2-yl)pyridin-3-yl)-1-(quinolin-5-yl)-5-(trifluoromethyl)-1H-pyrazole-4-carboxamide] | 23 | 275 | 50 | 36 | 1410 |
| Cc1nc(-n2nccn2)c(C#N)cc1NC(=O)c1cnn(-c2cnc(N)c3ccccc23)c1C(F)(F)F [Cpd 338, 1-(1-aminoisoquinolin-4-yl)-N-(5-cyano-2-methyl-6-(2H-1,2,3-triazol-2-yl)pyridin-3-yl)-5-(trifluoromethyl)-1H-pyrazole-4-carboxamide] | 58 | 1150 | 45 | 31 | 1440 |
| O=C(Nc1cnc(-n2nccn2)c(Cl)c1)c1cnn(-c2cc(=O)[nH]c3ccccc23)c1C(F)(F)F [Cpd 418, N-(5-chloro-6-(2H-1,2,3-triazol-2-yl)pyridin-3-yl)-1-(2-oxo-1,2-dihydroquinolin-4-yl)-5-(trifluoromethyl)-1H-pyrazole-4-carboxamide] | 550 | 464 | 95 | 71 | 3630 |

Stronger by IC50 [1], values ahead:

| IC50 [1] [nM] | IC50 [2] [nM] | IC50 [3] [nM] | IC50 [4] [nM] | SMILES | IC50 [5] [nM] |
| --- | --- | --- | --- | --- | --- |
| 19 | 395 | 98 | 95 | Nc1cnn(-c2ncc(NC(=O)c3cnn(-c4cccc5ncccc45)c3C(F)(F)F)cc2Cl)n1 [Cpd 154, N-(6-(4-amino-2H-1,2,3-triazol-2-yl)-5-chloropyridin-3-yl)-1-(quinolin-5-yl)-5-(trifluoromethyl)-1H-pyrazole-4-carboxamide] | 2240 |
| 13 | 193 | 72 | 40 | N#Cc1cc(NC(=O)c2cnn(-c3cccc4nnsc34)c2C(F)(F)F)cnc1-n1nccn1 [Cpd 119, 1-(benzo[d][1,2,3]thiadiazol-7-yl)-N-(5-cyano-6-(2H-1,2,3-triazol-2-yl)pyridin-3-yl)-5-(trifluoromethyl)-1H-pyrazole-4-carboxamide] | 355 |
| 13 | 211 | 12 | 12 | O=C(Nc1cnc(-n2nccn2)c(Cl)c1)c1cnn(-c2cncc3c(F)cccc23)c1C(F)(F)F [Cpd 117, N-(5-chloro-6-(2H-1,2,3-triazol-2-yl)pyridin-3-yl)-1-(8-fluoroisoquinolin-4-yl)-5-(trifluoromethyl)-1H-pyrazole-4-carboxamide] | 1580 |
| 15 | 158 | 17 | 12 | N#Cc1cc(NC(=O)c2cnn(-c3cncc4c(F)cccc34)c2C(F)(F)F)cnc1-n1nccn1 [Cpd 118, N-(5-cyano-6-(2H-1,2,3-triazol-2-yl)pyridin-3-yl)-1-(8-fluoroisoquinolin-4-yl)-5-(trifluoromethyl)-1H-pyrazole-4-carboxamide] | 832 |
| 17 | 966 | 115 | 98 | Cc1nc(-n2nccn2)c(Cl)cc1NC(=O)c1cnn(-c2cccc3c(=O)[nH]ccc23)c1C(F)(F)F [Cpd 112, N-(5-chloro-2-methyl-6-(2H-1,2,3-triazol-2-yl)pyridin-3-yl)-1-(1-oxo-1,2-dihydroisoquinolin-5-yl)-5-(trifluoromethyl)-1H-pyrazole-4-carboxamide] | 6310 |
| 22 | 692 | 58 | 50 | Cc1nc(-n2nccn2)c(Cl)cc1NC(=O)c1cnn(-c2cccc3nnsc23)c1C(F)(F)F [Cpd 121, 1-(benzo[d][1,2,3]thiadiazol-7-yl)-N-(5-chloro-2-methyl-6-(2H-1,2,3-triazol-2-yl)pyridin-3-yl)-5-(trifluoromethyl)-1H-pyrazole-4-carboxamide] | 1900 |
| 19 | 220 | 25 | 24 | Nc1ncc(-n2ncc(C(=O)Nc3cnc(-n4nccn4)c(Cl)c3)c2C(F)(F)F)c2cccc(F)c12 [Cpd 110, 1-(1-amino-8-fluoroisoquinolin-4-yl)-N-(5-chloro-6-(2H-1,2,3-triazol-2-yl)pyridin-3-yl)-5-(trifluoromethyl)-1H-pyrazole-4-carboxamide] | 1440 |
| 10 | 295 | 107 | 71 | O=C(Nc1cnc(-n2nccn2)c(Cl)c1)c1cnn(-c2ccnc3ccccc23)c1C(F)(F)F [Cpd 450, N-(5-chloro-6-(2H-1,2,3-triazol-2-yl)pyridin-3-yl)-1-(quinolin-4-yl)-5-(trifluoromethyl)-1H-pyrazole-4-carboxamide] | 2820 |
| 13 | 285 | 46 | 24 | Cc1cnn(-c2ncc(NC(=O)c3cnn(-c4cccc5ncccc45)c3C(F)(F)F)cc2Cl)n1 [Cpd 125, N-(5-chloro-6-(4-methyl-2H-1,2,3-triazol-2-yl)pyridin-3-yl)-1-(quinolin-5-yl)-5-(trifluoromethyl)-1H-pyrazole-4-carboxamide] | 1020 |

From patent US10954214B2 (Janssen Pharmaceutica NV, priority 2016, dated 2021)
